Data published in patent publication US6358883B1, “Pesticidal and parasiticidal use of 1-aryl-1-(substituted thio, sulfinyl and sulfonyl)-2-nitroethane compounds” (American Cyanamid Company, priority 1998, dated 2002).

Experiments:
Assay type in all cases: in vivo
[1] = tested on: C. elegans (Bristol strain); assay: Evaluation of test compounds against C. elegans (motility, 96-well plate); design: key: 9=complete kill in 4 hours; 8=complete kill in 24 hours; 7=markedly reduced motility in approximately 95% of worms in 24 hours; 0=normal motility, same as controls; conditions: motility at 4 and 24 hours
Procedure, shortened: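 Bristol-strain C. elegans in Na buffer added to wells containing dried compound (applied in 80% acetone) and incubated at 20 °C. Motility of adults and larvae scored subjectively but semi-quantitatively under a dissecting microscope at 4 and 24 h after immersion, plates tapped before reading.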

[2] = tested on: Spodoptera eridania, 2nd instar larvae, southern armyworm (SAW); assay: Southern armyworm (SAW) leaf dip test; design: key: 0 = no effect; 1 = 10-25% kill; 2 = 26-35% kill; 3 = 36-45% kill; 4 = 46-55% kill; 5 = 56-65% kill; 6 = 66-75% kill; 7 = 76-85% kill; 8 = 86-99% kill; 9 = 100% kill
Procedure, shortened: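 Compound is dissolved at 10,000 ppm in 35% acetone/water, then diluted with water. Lima bean leaves are dipped for 3 seconds, dried and placed with ten 2nd instar larvae on damp filter paper. Mortality, reduced feeding and molting interference are scored at 5 days.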

[3] = tested on: Diabrotica virgifera virgifera Leconte, 2nd instar western corn rootworm (WCR); assay: Western corn rootworm (WCR) soil test; design: key: 0 = no effect; 1 = 10-25% kill; 2 = 26-35% kill; 3 = 36-45% kill; 4 = 46-55% kill; 5 = 56-65% kill; 6 = 66-75% kill; 7 = 76-85% kill; 8 = 86-99% kill; 9 = 100% kill
Procedure, shortened: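 Compound in 35% acetone/water applied to talc at 1.25 mg active ingredient per jar (about 50 kg/ha), solvent evaporated, then mixed with millet seed and moist soil. Ten 2nd-instar larvae per jar; mortality counted after 5 days, missing larvae scored dead.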

[4] = tested on: Tetranychus urticae (OP-resistant strain), 2-spotted spider mite (TSM); assay: 2-spotted spider mite (TSM) plant dip test; design: key: 0 = no effect; 1 = 10-25% kill; 2 = 26-35% kill; 3 = 36-45% kill; 4 = 46-55% kill; 5 = 56-65% kill; 6 = 66-75% kill; 7 = 76-85% kill; 8 = 86-99% kill; 9 = 100% kill; conditions: mortality after 2 days
Procedure, shortened: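 OP-resistant mites (~100 per leaf) were transferred onto Sieva lima bean primary leaves about 2 h before treatment. Infested plants were dipped for 3 s in compound from a 10,000 ppm stock in 35% acetone/water, diluted with water. Mortality was counted after 2 days.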

[5] = tested on: Aphis gossypii, cotton aphid (CA); assay: Cotton aphid (CA) cotyledon dip test; design: key: 0 = no effect; 1 = 10-25% kill; 2 = 26-35% kill; 3 = 36-45% kill; 4 = 46-55% kill; 5 = 56-65% kill; 6 = 66-75% kill; 7 = 76-85% kill; 8 = 86-99% kill; 9 = 100% kill; conditions: mortality after 5 days
Procedure, shortened: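 Cotyledon-stage cotton plants infested overnight via a heavily infested leaf, then dipped in test solution (compound in 35% acetone/water, diluted with water) and dried. Mortality counted after 5 days.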

[6] = tested on: Spodoptera eridania, eggs-southern armyworm (SAW-Eggs); assay: Southern armyworm eggs (SAW-Eggs) treated diet test; design: key: 0 = no effect; 1 = 10-25% kill; 2 = 26-35% kill; 3 = 36-45% kill; 4 = 46-55% kill; 5 = 56-65% kill; 6 = 66-75% kill; 7 = 76-85% kill; 8 = 86-99% kill; 9 = 100% kill; conditions: mortality after 7 days
Description: Test solutions are prepared by dissolving the test compound in a 35% acetone in water mixture to give a concentration of 10,000 ppm. Subsequent dilutions are made with water as needed. Spodoptera eridania, Eggs-southern Armyworm and Diabrotica undecimpunctata howardi, Eggs-southern Corn Rootworm (SAW-Eggs) and (SCR-Eggs) Wells containing artificial diet are treated with the test solutions and dried. The appropriate insect eggs are then placed in the wells. The wells are covered with vented, adhesive, clear plastic covers. After 7 days, mortality counts are made. [table]

[7] = tested on: Diabrotica undecimpunctata howardi, eggs-southern corn rootworm (SCR-Eggs); assay: Southern corn rootworm eggs (SCR-Eggs) treated diet test; design: key: 0 = no effect; 1 = 10-25% kill; 2 = 26-35% kill; 3 = 36-45% kill; 4 = 46-55% kill; 5 = 56-65% kill; 6 = 66-75% kill; 7 = 76-85% kill; 8 = 86-99% kill; 9 = 100% kill; conditions: mortality after 7 days
Procedure, shortened: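 Compounds dissolved at 10,000 ppm in 35% acetone/water, diluted with water, applied to artificial diet in wells and dried. Southern corn rootworm or southern armyworm eggs placed on treated diet under vented covers; mortality counted after 7 days.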

[8] = tested on: M. incognita (Root Knot Nematode) larvae; assay: Evaluation of test compounds against M. incognita larvae in microtiter plate wells (movement score); conditions: larvae scored for movement after 20-24 hours; note: key: A score of '9' indicates inactive worms with a straight, sticklike morphology; A score of '8' indicates inactive worms with a limp, curled or curved morphology; A score of '7' indicates dead/paralyzed worms after 72 hours
Procedure, shortened: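 Newly emerged M. incognita larvae in S Medium (buffered salt solution), 50-65 worms per well, exposed to test compounds in sealed microtiter wells. Movement scored after 20-24 h incubation; wells with obviously dead/paralyzed larvae scored positive. A score of "7" denotes dead/paralyzed worms after […].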

| SMILES | Rating Against C. elegans (150 ppm) [1] | SAW (300 ppm) rating [2] | WCR (50 ppm) rating [3] | TSM (300 ppm) rating [4] | CA (300 ppm) rating [5] | SAW Eggs (300 ppm) rating [6] | SCR Eggs (1000 ppm) rating [7] | M. incognita (150 ppm) score [8] |
| --- | --- | --- | --- | --- | --- | --- | --- | --- |
| CCCOC(=O)CSC(C[N+](=O)[O-])c1c(F)c(F)c(F)c(F)c1F (centres unmarked) [Example 144] | 7 | 0 | 9 (9 = 100% kill) | 0 | 0 | 0 | 0 | – |
| O=[N+]([O-])CC(SCc1ccccc1)c1ccco1 (centres unmarked) [Example 203] | 9 | 0 | 8 (8 = 86-99% kill) | 0 | 0 | 9 (9 = 100% kill) | 9 (9 = 100% kill) | – |
| COC(=O)CSC(C[N+](=O)[O-])c1c(F)c(F)c(F)c(F)c1F (centres unmarked) [Example 140] | 8 | 6 (6 = 66-75% kill) | 9 (9 = 100% kill) | 0 | 0 | 0 | 0 | – |
| O=C(O)CSC(C[N+](=O)[O-])c1c(F)c(F)c(F)c(F)c1F (centres unmarked) [Example 139] | 9 | 0 | 9 (9 = 100% kill) | 0 | 0 | 0 | 0 | – |
| O=C(O)CSC(C[N+](=O)[O-])c1cccs1 (centres unmarked) [Example 181] | – | 0 | 0 | 0 | 0 | 9 (9 = 100% kill) | 0 | 9 |
| O=C(O)CSC(C[N+](=O)[O-])c1ccco1 (centres unmarked) [Example 196] | – | 0 | 9 (9 = 100% kill) | 0 | 0 | 0 | 0 | 9 |
| CCCOC(=O)CSC(C[N+](=O)[O-])c1cccs1 (centres unmarked) [Example 189] | – | 0 | 0 | 0 | 0 | 0 | 0 | 9 |
| COC(=O)CSC(C[N+](=O)[O-])c1ccco1 (centres unmarked) [Example 197] | – | 0 | 0 | 0 | 5 (5 = 56-65% kill) | 9 (9 = 100% kill) | 0 | 9 |
| C=CCSC(C[N+](=O)[O-])c1ccco1 (centres unmarked) [Example 202] | – | 0 | 9 (9 = 100% kill) | 0 | 0 | 9 (9 = 100% kill) | 0 | 0 |
| C=CCSC(C[N+](=O)[O-])c1cc(OC)cc(OC)c1 (centres unmarked) [Example 3] | 0 | – | – | – | – | 0 | 0 | – |
| CCCSC(C[N+](=O)[O-])c1cccs1 (centres unmarked) [Example 186] | – | 4 (4 = 46-55% kill) | 4 (4 = 46-55% kill) | 0 | 0 | 0 | 0 | 0 |
| O=[N+]([O-])CC(SCc1ccccc1)c1cccs1 (centres unmarked) [Example 188] | – | 0 | 3 (3 = 36-45% kill) | 0 | 0 | 0 | 0 | 9 |
